# Like-named read-outs stand apart in the source and are kept apart here.
# How the values were obtained:
# CCRF-CEM cell line = experiment: CCRF-CEM cytotoxic assay; assay type: cell-based, human; conditions: for IC50: Homo sapiens
# Experimental: (§1) The cytotoxic activity of the compounds was measured using CCRF-CEM human leukemia cells, as described previously (Boger, D. L., et al., Bioorg. Med. Chem. 1997, 5, 1847-1852). Two mutant cell lines, CCRF-CEM/MTX and CCRF-CEM/FPGS^− were used to determine the dependence on the reduced folate active transport system and folylpolyglutamate synthetase (FPGS), respectively (Jansen, G., et al., Cancer Res. 1989, 49, 2455-2459).
# CCRF-CEM/MTX cell line = experiment: Cytotoxic assay, reduced folate carrier deficient mutant; assay type: cell-based, human; conditions: impaired reduced folate carrier
# Experimental: as §1
# [1] = test system: CCRF-CEM/FPGS^− cell line; experiment: Cytotoxic assay, FPGS deficient mutant; assay type: cell-based, human; conditions: lacks folylpolyglutamate synthase
# Experimental: as §1
# E. coli GAR Tfase = E. coli GAR Tfase (Escherichia coli, UniProt P08179); experiment: E. coli GAR Tfase inhibition; assay type: biochemical; conditions: for fold less potent than the corresponding monoglutamate: α-pentaglutamate vs monoglutamate (25 vs 3, 26 vs 15)
# Experimental: (§2) GAR and AICAR Tfase inhibition studies were conducted as previously detailed^28 with the exception that the AICAR Tfase inhibition was conducted in the absence of 5 mM β-mercaptoethanol and screened with 10 nM enzyme, […] inhibitor and […] of cofactor. The DHFR inhibition study was conducted as previously detailed with 10 nM enzyme, […] H2F, […] NADPH and […] inhibitor.
# The Ki values for the folate analogues were measured as previously described (Boger, D. L., et al., Bioorg. Med. Chem. 1997, 5, 1817-1830). Briefly, each compound was dissolved in dimethyl sulfoxide (DMSO) and then diluted in assay buffer. […] Thus, all assays were conducted by mixing 10 μM 10-formyl-5,8-dideazafolate (fDDF), 20 μM inhibitor in total volume of 1 mL buffer (0.1 M HEPES, pH 7.5) at 26° C., and the reaction initiated by the addition of 76 nM E. coli or human GAR Tfase. The assay monitors the deformylation of fDDF (Δε=18.9 mM^−1 cm^−1 at 295 nm) resulting from the transfer of the formyl group to β-GAR.
# human AICAR Tfase = human AICAR Tfase (Homo sapiens, UniProt P31939); experiment: AICAR Tfase inhibition; assay type: biochemical; conditions: for fold enhanced binding affinity / more potent than the corresponding monoglutamate: 21 vs 3, 22 vs 15, 26 vs 15
# Experimental: as §2
# [2] = target: T1, recombinant human GAR Tfase (rhGAR Tfase) (Homo sapiens, UniProt P22102); experiment: Recombinant human GAR Tfase inhibition; assay type: biochemical; conditions: for potency increase of γ-pentaglutamate over monoglutamate: 21 vs 3, 22 vs 15
# T1 construct: includes residues 808-1010 from the human trifunctional enzyme (purD-purM-purN); hexa-histidine (C); made in house; host or cells: E. coli BL21 (DE3) Gold, pet22b vector
# T1 sequence (P22102 808-1010): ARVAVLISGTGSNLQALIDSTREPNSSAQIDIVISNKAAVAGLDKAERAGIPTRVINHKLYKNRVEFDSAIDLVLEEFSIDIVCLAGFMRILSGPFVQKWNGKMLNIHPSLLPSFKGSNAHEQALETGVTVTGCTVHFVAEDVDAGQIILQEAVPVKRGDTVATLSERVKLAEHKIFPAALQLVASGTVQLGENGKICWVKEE
# Experimental: The gene was subcloned into the pet22b vector using the Ndel/Xhol cloning site with ahexa-histidine tag at the C-terminus. The plasmid was transformed into the E. coli expression strain BL21 (DE3) Gold. […] The purified protein was used in the inhibition assays, cytotoxic assays and crystallization experiments.
# Briefly, each compound was dissolved in dimethyl sulfoxide (DMSO) and then diluted in assay buffer.
# Sequence of human AICAR Tfase (P31939 whole entry): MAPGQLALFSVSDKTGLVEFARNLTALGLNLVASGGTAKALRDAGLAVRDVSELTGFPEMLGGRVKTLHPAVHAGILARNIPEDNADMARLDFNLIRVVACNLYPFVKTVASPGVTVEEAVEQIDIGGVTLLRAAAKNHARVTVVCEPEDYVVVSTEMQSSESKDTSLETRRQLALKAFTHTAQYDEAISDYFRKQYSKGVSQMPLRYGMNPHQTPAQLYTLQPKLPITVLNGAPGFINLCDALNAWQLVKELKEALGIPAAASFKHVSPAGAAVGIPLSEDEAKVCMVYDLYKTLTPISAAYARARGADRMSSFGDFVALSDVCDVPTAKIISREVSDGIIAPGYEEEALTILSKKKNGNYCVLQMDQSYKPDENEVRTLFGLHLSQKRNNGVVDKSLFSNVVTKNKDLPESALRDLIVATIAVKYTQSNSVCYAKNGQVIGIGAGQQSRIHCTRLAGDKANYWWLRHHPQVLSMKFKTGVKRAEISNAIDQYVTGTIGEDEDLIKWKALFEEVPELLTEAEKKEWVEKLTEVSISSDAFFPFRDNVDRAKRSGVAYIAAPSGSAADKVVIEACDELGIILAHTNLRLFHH
# Sequence of E. coli GAR Tfase (P08179 whole entry): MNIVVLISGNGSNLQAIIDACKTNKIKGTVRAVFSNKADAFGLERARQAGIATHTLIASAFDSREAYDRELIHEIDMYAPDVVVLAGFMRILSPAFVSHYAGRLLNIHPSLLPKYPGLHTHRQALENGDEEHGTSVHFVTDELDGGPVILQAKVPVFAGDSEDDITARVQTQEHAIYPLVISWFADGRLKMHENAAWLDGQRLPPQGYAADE
structure (smiles),measurement,setting,value
"Nc1nc2c(c(=O)[nH]1)C[C@@H](CCc1ccc(C(=O)N[C@@H](CCC(=O)O)C(=O)O)cc1)CN2 [Lometrexol, (6R)-5,10-dideazatetrahydrofolate, reference compound]",IC50,CCRF-CEM cell line; purines (hypoxanthine) absent in the media,230 nM
same,IC50,CCRF-CEM cell line; purines absent in the media,150 nM
same,cytotoxic activity (in words),CCRF-CEM cell line; media supplemented with a purine,no activity
same,cytotoxic activity (in words),CCRF-CEM/MTX cell line,lost activity
same,cytotoxic activity (in words),[1],lacked or lost activity
"Nc1nc(N)c(CCCC(C=O)c2ccc(C(=O)N[C@@H](CCC(=O)O)C(=O)N[C@@H](CCC(=O)O)C(=O)N[C@@H](CCC(=O)O)C(=O)N[C@@H](CCC(=O)O)C(=O)N[C@@H](CCC(=O)O)C(=O)O)cc2)c(=O)[nH]1 (stereo partly drawn) [Compound 25, N{4-[5-(2,4-Diamino-6(1H)-pyrimidinon-5-yl)-1-formyl-but-2-yl]benzoyl}-L-α-glutamyl-L-α-glutamyl-L-α-glutamyl-L-α-glutamyl-L-α-glutamic Acid]",fold less potent than the corresponding monoglutamate,E. coli GAR Tfase,3 fold
same,fold less potent than the aldehyde monoglutamate 3,human AICAR Tfase; 25 vs 3,16 fold
same,cytotoxic activity (in words),CCRF-CEM cell line,little or no cytotoxic activity
"Nc1nc(N)c(CCCC(C(=O)C(F)(F)F)c2ccc(C(=O)O)cc2)c(=O)[nH]1 (centres unmarked) [Compound 111, 4-[4-(2,4-diamino-6-oxo-1,6-dihydropyrimidin-5-yl)-1-(2,2,2-trifluoro-acetyl)butyl]benzoic acid]",inhibition of GAR Tfase (in words),[2],lack of inhibition
"Nc1nc(N)c(CCCCc2ccc(C(=O)N[C@@H](CCC(=O)O)C(=O)O)cc2)c(=O)[nH]1 [DDACTHF, reference compound]",IC50,CCRF-CEM cell line; purines absent in the media,2700 nM
"CN(C)N=CC(CCCc1c(N)nc(N)[nH]c1=O)c1ccc(C(=O)N[C@@H](CCC(=O)O)C(=O)N[C@@H](CCC(=O)O)C(=O)N[C@@H](CCC(=O)O)C(=O)N[C@@H](CCC(=O)O)C(=O)N[C@@H](CCC(=O)O)C(=O)O)cc1 (stereo partly drawn) [Compound 26, N{4-[5-(2,4-Diamino-6(1H)-pyrimidinon-5-yl)-1-(dimethylhydrazono)pent-2-yl]benzoyl}-L-α-glutamyl-L-α-glutamyl-L-α-glutamyl-L-α-glutamyl-L-α-glutamic Acid]",orders of magnitude less potent than the corresponding γ-pentaglutamate 22,E. coli GAR Tfase; 26 vs 22,1-2 orders of magnitude
same,fold less potent than the corresponding monoglutamate,E. coli GAR Tfase,4 fold
same,fold enhanced binding affinity / more potent than the corresponding monoglutamate,human AICAR Tfase,4 fold
same,orders of magnitude less potent than the corresponding γ-pentaglutamate 22,human AICAR Tfase; 26 vs 22,1-2 orders of magnitude
same,cytotoxic activity (in words),CCRF-CEM cell line,little or no cytotoxic activity
"CN(C)N=CC(CCCc1c(N)nc(N)[nH]c1=O)c1ccc(C(=O)N[C@@H](CCC(=O)N[C@@H](CCC(=O)N[C@@H](CCC(=O)N[C@@H](CCC(=O)N[C@@H](CCC(=O)O)C(=O)O)C(=O)O)C(=O)O)C(=O)O)C(=O)O)cc1 (stereo partly drawn) [Compound 22, N{4-[5-(2,4-Diamino-6(1H)-pyrimidinon-5-yl)-1-(dimethylhydrazono)pent-2-yl]benzoyl}-L-γ-glutamyl-L-γ-glutamyl-L-γ-glutamyl-L-γ-glutamyl-L-γ-glutamic Acid]",inhibition of / binding affinity for E. coli GAR Tfase (in words),E. coli GAR Tfase,only marginal enhanced binding affinity
same,potency increase of γ-pentaglutamate over monoglutamate,[2],5 fold
same,fold enhanced binding affinity / more potent than the corresponding monoglutamate,human AICAR Tfase,140 fold
same,cytotoxic activity (in words),CCRF-CEM cell line,little or no cytotoxic activity
"Nc1nc(N)c(CCCC(C=O)c2ccc(C(=O)N[C@@H](CCC(=O)N[C@@H](CCC(=O)N[C@@H](CCC(=O)N[C@@H](CCC(=O)N[C@@H](CCC(=O)O)C(=O)O)C(=O)O)C(=O)O)C(=O)O)C(=O)O)cc2)c(=O)[nH]1 (stereo partly drawn) [Compound 21, N-{4-[5-(2,4-Diamino-6(1H)-pyrimidinon-5-yl)-1-formyl-but-2-yl]benzoyl}-L-γ-glutamyl-L-γ-glutamyl-L-γ-glutamyl-L-γ-glutamyl-L-γ-glutamic Acid]",inhibition of / binding affinity for E. coli GAR Tfase (in words),E. coli GAR Tfase,only marginal enhanced binding affinity
same,potency increase of γ-pentaglutamate over monoglutamate,[2],did not enhance
same,fold enhanced binding affinity / more potent than the corresponding monoglutamate,human AICAR Tfase,4 fold
same,cytotoxic activity (in words),CCRF-CEM cell line,little or no cytotoxic activity

# Source: patent publication US20070167377A1, “Inhibitors of glycinamide ribonucleotide transformylase” (priority 2002, published 2007)
